According to US5935973A, “Heterocyclcarboxamide derivatives and their use as therapeutic agents” (Knoll Aktiengesellschaft, priority 1995, dated 1999):

Tests used:
5-HT1A receptors = target: T1, 5-HT1A receptors (Rattus norvegicus, UniProt P19327); test: inhibition of [3H]8-OH-DPAT binding to 5-HT1A receptors in rat hippocampal tissue; conditions: at 10^-6 M; rat hippocampus, [3H]8-OH-DPAT; read-out: % displacement of radio ligand, 5-HT1A
T1 construct: Hippocampal tissue from the brains of male Sprague-Dawley rats; from tissue; host or cells: rat hippocampus membranes
T1 sequence (P19327 1-422): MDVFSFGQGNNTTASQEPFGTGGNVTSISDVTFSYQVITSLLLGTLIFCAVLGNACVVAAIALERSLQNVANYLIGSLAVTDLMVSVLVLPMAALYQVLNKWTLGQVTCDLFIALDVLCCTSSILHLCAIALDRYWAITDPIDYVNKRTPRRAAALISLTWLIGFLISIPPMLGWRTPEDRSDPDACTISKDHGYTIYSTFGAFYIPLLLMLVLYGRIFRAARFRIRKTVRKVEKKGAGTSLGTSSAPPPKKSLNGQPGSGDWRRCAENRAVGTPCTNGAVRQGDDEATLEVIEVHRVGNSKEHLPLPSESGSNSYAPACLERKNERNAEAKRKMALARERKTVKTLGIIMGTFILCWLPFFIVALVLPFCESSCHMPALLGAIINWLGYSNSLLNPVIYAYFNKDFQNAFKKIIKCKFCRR
Procedure: Hippocampal tissue from the brains of male Sprague-Dawley rats (Charles River; weight range 150-250 g) was homogenised in ice-cold 50 mM Tris-HCl buffer (pH 7.7 when measured at 25° C., 1:40 w/v) and centrifuged at 30,000 g at 4° C. for 10 minutes. The pellet was rehomogenised in the same buffer, incubated at 37° C. for 10 minutes and centrifuged at 30,000 g at 4° C. for 10 minutes. The final pellet was resuspended in 50 mM Tris-HCl buffer (pH 7.7) containing 4 mM CaCl2, 0.1% L-ascorbic acid and 10 μM pargyline hydrochloride (equivalent to 6.25 mg wet weight of tissue/ml) and used immediately in the binding assay. Aliquots (400 μl; equivalent to 2.5 mg wet weight of tissue/tube) of this suspension were added to tubes containing the ligand (50 μl; 2 nM) and distilled water (50 μl total binding) or 5-HT (50 μl; 10 μM; non-specific binding) or test compound (50 μl; at a single concentration of 10^-6 M or at 10 concentrations ranging from 10^-11 -10^-3 M). The ligand was [^3 H]8-hydroxy-2-(dipropylamino)tetralin ([^3 H]8-OH-DPAT) and the mixture was incubated at 25° C. for 30 minutes before the incubation was terminated by rapid filtration.
(§1) The filters were washed with ice-cold Tris-HCl buffer and dried. The filters were punched out into vials, scintillation fluid added and radioactivity determined by liquid scintillation counting. The percentage displacement of specific binding of the tritiated ligand was calculated for the single concentration (10^-6 M) of test compound. Displacement curves were then produced for those compounds which displaced ≥50% of specific binding of the tritiated ligand at 10^-6 M using a range of concentrations of the compound. The concentration which gave 50% inhibition of specific binding (IC50) was obtained from the curve. The inhibition coefficient Ki was then calculated using the formula [formula] in which [ligand] is the concentration of the tritiated ligand used and KD is the equilibrium dissociation constant for the ligand.

α1-adrenoceptors = test: inhibition of [7-methoxy-3H]prazosin binding to α1-adrenoceptors in rat whole cortical tissue; conditions: at 10^-6 M; rat whole cortex, [7-methoxy-3H]prazosin; 30 min, 1 µM
Procedure: Whole cortical tissue from the brains of male Charles River CD rats weighing between 150-250 g were homogenised in ice-cold 50 mM Tris-HCl, pH 7.6 (at 25° C.; 1:40 w/v) and centrifuged at 1000 g at 4° C. for 10 minutes. The supernatant was centrifuged at 30,000 g at 4° C. for 10 minutes. The pellet was rehomogenised in 50 mM Tris-HCl, pH 7.6 (1:40 w/v) and centrifuged at 30,000 g at 4° C. for 10 minutes. The final pellet was resuspended in 50 mM Tris-HCl, pH 7.6 (equivalent to 12.5 mg wet weight of tissue/ml) and used immediately in the binding assay. Aliquots (400 μl; equivalent to 5 mg wet weight of tissue/tube) of this suspension were added to tubes containing the ligand (50 μl; 0.1 nM) and distilled water (50 μl; total binding) or phentolamine (50 μl; 5 μM; non-specific binding) or test compound (50 μl; at a single concentration of 10^-6 M or at 10 concentrations ranging from 10^-11 -10^-3 M). The ligand was [7-methoxy-^3 H]prazosin and the mixture was incubated at 30° C. for 30 minutes before the incubation was terminated by rapid filtration.
as §1

D2 dopamine receptors = target: T2, D2 dopamine receptors (Rattus norvegicus, UniProt P61169); test: inhibition of tritiated (S)-sulpiride binding to D2 dopamine receptors in rat striatal tissue; conditions: at 10^-6 M; rat striatum, tritiated (S)-sulpiride; read-out: % displacement of radio ligand, D2
T2 construct: Striatal tissue from the brains of male Charles River CD rats; from tissue; host or cells: rat striatum membranes
T2 sequence (P61169 whole entry): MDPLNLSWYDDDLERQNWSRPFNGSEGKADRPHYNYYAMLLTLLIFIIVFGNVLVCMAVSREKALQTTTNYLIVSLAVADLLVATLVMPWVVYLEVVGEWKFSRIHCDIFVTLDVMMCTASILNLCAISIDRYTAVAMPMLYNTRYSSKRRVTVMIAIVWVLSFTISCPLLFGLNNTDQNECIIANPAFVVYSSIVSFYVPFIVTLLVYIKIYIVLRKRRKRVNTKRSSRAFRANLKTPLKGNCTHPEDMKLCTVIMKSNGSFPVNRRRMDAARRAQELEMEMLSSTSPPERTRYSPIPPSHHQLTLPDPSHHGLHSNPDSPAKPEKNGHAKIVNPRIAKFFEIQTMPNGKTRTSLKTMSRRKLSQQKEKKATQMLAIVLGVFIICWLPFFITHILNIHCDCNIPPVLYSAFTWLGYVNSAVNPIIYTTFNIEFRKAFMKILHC
Procedure: Striatal tissue from the brains of male Charles River CD rats weighing between 140-250 g were homogenised in ice-cold 50 mM Tris-HCl buffer (pH 7.7 when measured at 25° C.) and centrifuged at 40,000 g for 10 minutes. The pellet was resuspended in Tris salts buffer (50 mM Tris-HCl buffer containing 120 mM NaCl, 5 mM KCl, 2 mM CaCl2 and 1 mM MgCl2 with the addition of 6 mM ascorbic acid; pH 7.7 when measured at 25° C.), and again centrifuged at 40,000 g for 10 minutes. The final pellet was stored at -80° C. Before each test the pellet was resuspended in Tris salts buffer (equivalent to 2 mg wet weight of tissue/ml). Aliquots (720 μl; equivalent to 1.44 mg wet weight of tissue/tube) of this suspension were then added to tubes containing the ligand (40 μl; 1 nM) and Tris salts buffer (40 μl; total binding) or spiroperidol (40 μl; 10 nM; non-specific binding) or test compound (40 μl; at a single concentration of 10^-6 M or at 6 concentrations ranging from 10^-11 -10^-4 M). The ligand was tritiated (S)-sulpiride and the mixture was incubated at 4° C. for 40 minutes before the incubation was terminated by rapid filtration.
The filters were washed with ice-cold Tris-HCl buffer and dried. The filters were punched out in to vials, scintillation fluid added and were left for about 20 hours before being counted by scintillation spectrophotometry. The percentage displacement of specific binding of the tritiated ligand was calculated for the single concentration (10^-6 M) of test compound. Displacement curves were then produced over a range of concentrations for those compounds which displaced ≥50% of specific binding of the tritiated ligand at 10^-6 M. The concentration which gave a 50% inhibition of specific binding (IC50) was obtained from the curve. The inhibition coefficient Ki was then calculated using the formula [formula] in [ligand] is the concentration of the tritiated ligand used and KD is the 2 equilibrium dissociation constant for the ligand.

inhibition at 1 µM (5-HT1A receptors)	% displacement of radio ligand, α1 (α1-adrenoceptors)	inhibition at 1 µM (D2 dopamine receptors)	Compound
88%	51%	99%	CSc1ncccc1C(=O)NCC1CCN(C[C@H]2COc3ccc(Br)cc3O2)CC1 [Example 38, (S)-N-{[1-(7-bromo-1,4-benzodioxan-2-ylmethyl)-4-piperidyl]methyl}-2-(methylthio)pyridine-3-carboxamide]
85%	43%	87%	O=C(NCC1CCN(C[C@H]2COc3ccc(Br)cc3O2)CC1)c1cncc(Br)c1 [Example 39, (S)-5-bromo-N-{[1-(7-bromo-1,4-benzodioxan-2-ylmethyl)-4-piperidyl]methyl}pyridine-3-carboxamide]
87%	60%	91%	O=C(NCC1CCN(C[C@H]2COc3ccc(Cl)cc3O2)CC1)c1ccc(-n2cccc2)nc1 [Example 40, (S)-N-{[1-(7-chloro-1,4-benzodioxan-2-ylmethyl)-4-piperidyl]methyl}-6-(1-pyrrolyl)pyridine-3-carboxamide]
68%	29%	70%	CSc1ncccc1C(=O)NCC1CCN(C[C@H]2COc3ccc(Cl)cc3O2)CC1 [Example 41, (S)-N-{[1-(7-chloro-1,4-benzodioxan-2-ylmethyl)-4-piperidyl]methyl}-2-(methylthio)pyridine-3-carboxamide]
92%	62%	91%	O=C(NCC1CCN(C[C@H]2COc3ccc(Cl)cc3O2)CC1)c1cncc(Br)c1 [Example 42, (S)-5-bromo-N-{[1-(7-chloro-1,4-benzodioxan-2-ylmethyl)-4-piperidyl]methyl}pyridine-3-carboxamide]
76%	59%	68%	O=C(NCC1CCN(C[C@H]2COc3ccc(F)cc3O2)CC1)c1cccnc1 [Example 43, (S)-N-{[1-(7-fluoro-1,4-benzodioxan-2-ylmethyl)-4-piperidyl]methyl}pyridine-3-carboxamide]
64%	38%	57%	CSc1ncccc1C(=O)NCC1CCN(C[C@H]2COc3ccc(F)cc3O2)CC1 [Example 44, (S)-N-{[1-(7-fluoro-1,4-benzodioxan-2-ylmethyl)-4-piperidyl]methyl}-2-(methylthio)pyridine-3-carboxamide]
80%	94%	97%	O=C(NCC1CCN(C[C@H]2COc3cccc(C(F)(F)F)c3O2)CC1)c1cccnc1 [Example 45, (S)-N-{[1-(8-trifluoromethyl-1,4-benzodioxan-2-ylmethyl)-4-piperidyl]methyl}pyridine-3-carboxamide]
86%	98%	104%	Cc1ncccc1C(=O)NCC1CCN(C[C@H]2COc3cccc(C(F)(F)F)c3O2)CC1 [Example 46, (S)-2-methyl-N-{[1-(8-trifluoromethyl-1,4-benzodioxan-2-ylmethyl)-4-piperidyl]methyl}pyridine-3-carboxamide]
75%	94%	100%	O=C(NCC1CCN(C[C@H]2COc3cccc(C(F)(F)F)c3O2)CC1)c1ccc(-n2cccc2)nc1 [Example 47, (S)-6-(1-pyrrolyl)-N-{[1-(8-trifluoromethyl-1,4-benzodioxan-2-ylmethyl)-4-piperidyl]methyl}pyridine-3-carboxamide]
80%	93%	101%	CSc1ncccc1C(=O)NCC1CCN(C[C@H]2COc3cccc(C(F)(F)F)c3O2)CC1 [Example 48, (S)-2-(methylthio)-N-{[1-(8-trifluoromethyl-1,4-benzodioxan-2-ylmethyl)-4-piperidyl]methyl}pyridine-3-carboxamide]
88%	93%	99%	O=C(NCC1CCN(C[C@H]2COc3cccc(C(F)(F)F)c3O2)CC1)c1cncc(Br)c1 [Example 49, (S)-5-bromo-N-{[1-(8-trifluoromethyl-1,4-benzodioxan-2-ylmethyl)-4-piperidyl]methyl}pyridine-3-carboxamide]
97%	98%	101%	O=C(NCC1CCN(C[C@H]2COc3cccc(Cl)c3O2)CC1)c1ccc(-n2cccc2)nc1 [Example 50, (S)-N-{[1-(8-chloro-1,4-benzodioxan-2-ylmethyl)-4-piperidyl)methyl}-6-(1-pyrrolyl)pyridine-3-carboxamide]
95%	98%	101%	CSc1ncccc1C(=O)NCC1CCN(C[C@H]2COc3cccc(Cl)c3O2)CC1 [Example 51]
95%	97%	101%	O=C(NCC1CCN(C[C@H]2COc3cccc(Cl)c3O2)CC1)c1cncc(Br)c1 [Example 52, (S)-5-bromo-N-{[1-(8-chloro-1,4-benzodioxan-2-ylmethyl)-4-piperidyl]methyl}pyridine-3-carboxamide]
